Laboratory results: patent publication US20230339952A1, “MACROCYCLIC HETEROCYCLES AND USES THEREOF” (Kumquat Biosciences Inc., priority 2022, published 2023)

What was measured:
[1] = system: NCI-H1975 (ATCC CRL-5908) cell line comprising an EGFR T790M L858R double mutation; assay: EGFR-SOS cellular inhibition assay (CellTiter-Glo cell proliferation); type: cell-based; details: Homo sapiens, 120 h; NCI-H1975 cell proliferation, approximately 5 days; read-out: H1975 IC50
Experimental: A CellTiter-Glo (CTG) luminescent based assay (Promega) is used to assess growth of the cells, as a measurement of the ability of the compounds herein to inhibit EGFR signaling in the cells. […] The day after plating, cells are treated with a dilution series (e.g., a 9 point 3-fold dilution series) of the compounds herein (e.g., approximately 125 μL final volume per well).

SOS1 = SOS1 (Homo sapiens (Human), UniProt Q07889); assay: Ras-SOS interaction assay (HTRF), K-Ras G13D utilized; type: binding; details: K-Ras G13D, read-out: SOS1 IC50
Chain of SOS1 (Q07889 564-1049): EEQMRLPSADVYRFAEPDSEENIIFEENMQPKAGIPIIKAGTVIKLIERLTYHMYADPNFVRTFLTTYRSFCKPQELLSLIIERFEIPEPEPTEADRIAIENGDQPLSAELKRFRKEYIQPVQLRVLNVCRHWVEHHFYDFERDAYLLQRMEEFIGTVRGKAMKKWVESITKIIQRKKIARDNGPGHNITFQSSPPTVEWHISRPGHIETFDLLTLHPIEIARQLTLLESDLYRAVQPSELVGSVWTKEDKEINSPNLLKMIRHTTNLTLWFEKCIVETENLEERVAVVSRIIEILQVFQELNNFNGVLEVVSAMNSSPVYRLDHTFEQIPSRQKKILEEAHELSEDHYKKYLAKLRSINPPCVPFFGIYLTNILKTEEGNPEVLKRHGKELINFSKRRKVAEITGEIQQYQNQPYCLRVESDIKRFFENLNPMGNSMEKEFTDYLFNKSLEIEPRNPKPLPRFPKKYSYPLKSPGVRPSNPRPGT

`CC(C)N1CCN(c2cc3c4ncnc3n(c2=O)CC(=O)NCCCCN2CCC(CC2)C(F)(F)c2cccc(c2)[C@@H](C)N4)CC1` [Compound 53, (4R)-2,2-difluoro-6^6-(4-isopropylpiperazin-1-yl)-4-methyl-6^7,6^8-dihydro-5,9-diaza-6(4,8)-pyrido[2,3-d]pyrimidina-1(4,1)-piperidina-3(1,3)-benzenacyclotridecaphane-6^7,8-dione] was tested, and the IC50 [1] was under 1000 nM and the IC50 (SOS1) was under 100 nM.

Work on `C[C@H]1Nc2ncnc3c2cc(C2CCS(=O)(=O)CC2)c(=O)n3CCCCCC(C)(C)CN2CCC(CC2)C(F)(F)c2cccc1c2` [Compound 55, (4R)-6^6-(1,1-dioxidotetrahydro-2H-thiopyran-4-yl)-2,2-difluoro-4,12,12-trimethyl-6^7,6^8-dihydro-5-aza-6(4,8)-pyrido[2,3-d]pyrimidina-1(4,1)-piperidina-3(1,3)-benzenacyclotridecaphan-6^7-one] yielded an IC50 [1] of under 1000 nM and an IC50 (SOS1) of under 100 nM.

`C[C@H]1Nc2ncnc3c2cc(N2CCN(C)CC2)c(=O)n3CCCCCCCN2CCC(CC2)C(F)(F)c2cccc1c2F` [Compound 57, (4R)-3^2,2,2-trifluoro-4-methyl-6^6-(4-methylpiperazin-1-yl)-6^7,6^8-dihydro-5-aza-6(4,8)-pyrido[2,3-d]pyrimidina-1(4,1)-piperidina-3(1,3)-benzenacyclotridecaphan-6^7-one] gave an IC50 [1] of under 1000 nM and an IC50 (SOS1) of under 100 nM.

Compound `C[C@H]1Nc2ncnc3c2cc(C2(C#N)CC2)c(=O)n3CCCCCC(O)CN2CCC(CC2)C(F)(F)c2cccc1c2` (stereo partly drawn) [Compound 58, 1-((4R)-2,2-difluoro-12-hydroxy-4-methyl-6^7-oxo-6^7,6^8-dihydro-5-aza-6(4,8)-pyrido[2,3-d]pyrimidina-1(4,1)-piperidina-3(1,3)-benzenacyclotridecaphane-6^6-yl)cyclopropane-1-carbonitrile] has an IC50 [1] of under 1000 nM and an IC50 (SOS1) of under 100 nM.

Compound `C[C@H]1Nc2ncnc3c2cc(C2CCS(=O)(=O)CC2)c(=O)n3CC(=O)NCCCCN2CCC(CC2)C(F)(F)c2cccc1c2` [Compound 60, (4R)-6^6-(1,1-dioxidotetrahydro-2H-thiopyran-4-yl)-2,2-difluoro-4-methyl-6^7,6^8-dihydro-5,9-diaza-6(4,8)-pyrido[2,3-d]pyrimidina-1(4,1)-piperidina-3(1,3)-benzenacyclotridecaphane-6^7,8-dione] has an IC50 [1] of under 1000 nM and an IC50 (SOS1) of under 100 nM.

`C[C@H]1Nc2ncnc3c2cc(C2CCS(=O)(=O)CC2)c(=O)n3CCCOCCCCN2CCC(CC2)C(F)(F)c2cccc1c2` [Compound 62, (4R)-66-(1,1-dioxidotetrahydro-2H-thiopyran-4-yl)-2,2-difluoro-4-methyl-67,68-dihydro-10-oxa-5-aza-6(4,8)-pyrido[2,3-d]pyrimidina-1(4,1)-piperidina-3(1,3)-benzenacyclotetradecaphan-67-one] gave an IC50 [1] of under 1000 nM and an IC50 (SOS1) of under 100 nM.

Compound `CC1CCCCCCn2c(=O)c(C3(C#N)CC3)cc3c(ncnc32)N[C@H](C)c2cccc(c2)C(F)(F)C2CCN1CC2` (stereo partly drawn) [Compound 63, 1-((4R)-2,2-difluoro-4,13-dimethyl-6^7-oxo-6^7,6^8-dihydro-5-aza-6(4,8)-pyrido[2,3-d]pyrimidina-1(4,1)-piperidina-3(1,3)-benzenacyclotridecaphane-6^6-yl)cyclopropane-1-carbonitrile] has an IC50 [1] of under 1000 nM and an IC50 (SOS1) of under 100 nM.

Work on `C[C@H]1Nc2ncnc3c2cc(N2CCOCC2)c(=O)n3CCCCCCCN2CCC(CC2)C(F)(F)c2cccc1c2` [Compound 64, (4R)-2,2-difluoro-4-methyl-6^6-morpholino-6^7,6^8-dihydro-5-aza-6(4,8)-pyrido[2,3-d]pyrimidina-1(4,1)-piperidina-3(1,3)-benzenacyclotridecaphan-6^7-one] yielded an IC50 [1] of under 1000 nM and an IC50 (SOS1) of under 100 nM.

Compound `C[C@H]1Nc2ncnc3c2cc(C2(C#N)CC2)c(=O)n3CCCC/C=C/CN2CCC(CC2(C)C)C(F)(F)c2cccc1c2` (stereo partly drawn) [Compound 70, 1-((4R,E)-2,2-difluoro-1^2,1^2,4-trimethyl-6^7-oxo-6^7,6^8-dihydro-5-aza-6(4,8)-pyrido[2,3-d]pyrimidina-1(4,1)-piperidina-3(1,3)-benzenacyclotridecaphan-11-en-6^6-yl)cyclopropane-1-carbonitrile] has an IC50 [1] of under 1000 nM and an IC50 (SOS1) of under 100 nM.

Compound `C[C@H]1Nc2ncnc3c2cc(C2(C#N)CC2)c(=O)n3CCNC(=O)CCCN2CCC(CC2)C(F)(F)c2cccc1c2` [Compound 71, 1-((4R)-2,2-difluoro-4-methyl-6^7,10-dioxo-6^7,6^8-dihydro-5,9-diaza-6(4,8)-pyrido[2,3-d]pyrimidina-1(4,1)-piperidina-3(1,3)-benzenacyclotridecaphane-6^6-yl)cyclopropane-1-carbonitrile] has an IC50 [1] of under 1000 nM and an IC50 (SOS1) of under 100 nM.

With `C[C@@H]1CCCNC(=O)Cn2c(=O)c(C3(C#N)CC3)cc3c(ncnc32)N[C@H](C)c2cccc(c2F)C(F)(F)C2CCN1CC2` [Compound 72, 1-((4R,13R)-3^2,2,2-trifluoro-4,13-dimethyl-6^7,8-dioxo-6^7,6^8-dihydro-5,9-diaza-6(4,8)-pyrido[2,3-d]pyrimidina-1(4,1)-piperidina-3(1,3)-benzenacyclotridecaphane-6^6-yl)cyclopropane-1-carbonitrile] the IC50 [1] was under 1000 nM and the IC50 (SOS1) was under 100 nM.

`CC(C)N1CCC(c2cc3c4ncnc3n(c2=O)CCCCCCCN2CCC(CC2)C(F)(F)c2cccc(c2)[C@@H](C)N4)CC1` [Compound 73, (4R)-2,2-difluoro-6^6-(1-isopropylpiperidin-4-yl)-4-methyl-6^7,6^8-dihydro-5-aza-6(4,8)-pyrido[2,3-d]pyrimidina-1(4,1)-piperidina-3(1,3)-benzenacyclotridecaphan-6^7-one] was tested, and the IC50 [1] was under 1000 nM and the IC50 (SOS1) was under 100 nM.

In the case of `C[C@H]1Nc2ncnc3c2cc(C2CCS(=O)(=O)CC2)c(=O)n3CCCC/C=C/CN2CCC(CC2(C)C)C(F)(F)c2cccc1c2` (stereo partly drawn) [Compound 74, (4R,E)-6^6-(1,1-dioxidotetrahydro-2H-thiopyran-4-yl)-2,2-difluoro-1^2,1^2,4-trimethyl-6^7,6^8-dihydro-5-aza-6(4,8)-pyrido[2,3-d]pyrimidina-1(4,1)-piperidina-3(1,3)-benzenacyclotridecaphan-11-en-6^7-one], the IC50 [1] is reported as under 1000 nM and the IC50 (SOS1) is reported as under 100 nM.

In the case of `C[C@H]1Nc2ncnc3c2cc(C2(C#N)CCOCC2)c(=O)n3CCCCCCCN2CCC(CC2)C(F)(F)c2cccc1c2` [Compound 76, 4-((4R)-2,2-difluoro-4-methyl-6^7-oxo-6^7,6^8-dihydro-5-aza-6(4,8)-pyrido[2,3-d]pyrimidina-1(4,1)-piperidina-3(1,3)-benzenacyclotridecaphane-6^6-yl)tetrahydro-2H-pyran-4-carbonitrile], the IC50 [1] is reported as under 1000 nM and the IC50 (SOS1) is reported as under 100 nM.

`CC(C)N1CCN(c2cc3c4ncnc3n(c2=O)CCCOCCCCN2CCC(CC2)C(F)(F)c2cccc(c2F)[C@@H](C)N4)CC1` [Compound 77, (4R)-3^2,2,2-trifluoro-6^6-(4-isopropylpiperazin-1-yl)-4-methyl-6^7,6^8-dihydro-10-oxa-5-aza-6(4,8)-pyrido[2,3-d]pyrimidina-1(4,1)-piperidina-3(1,3)-benzenacyclotetradecaphan-6^7-one] showed an IC50 [1] of under 1000 nM and an IC50 (SOS1) of under 100 nM.
